Measured values published in US11298422B2, “Treating tumors with TTFields and an aurora kinase inhibitor” (Novocure Limited, priority 2018, dated 2022).

Columns and labels:
Assay type in all cases: cell-based, human
U87-MG^shp53 = assay: Flow cytometry analysis of DNA contents (ploidy), U87-MG^shp53; details: 72 h
Description: (§1) For cell cycle analysis, cells were removed with Trypsin immediately after 72 h treatment, washed twice with ice-cold PBS with 1% FBS and fixed with 70% ice-cold ethanol for 30 min. After fixation, cells were washed twice with ice-cold PBS with 1% FBS, pelleted and incubated in PBS containing 10 μg/ml RNase and 7.5 μg/ml7-AAD (Sigma-Aldrich) at 37° C. for 30 min. Cell cycle distribution was then quantified using the EC800 flow cytometer (Sony Biotechnology, Japan).
(§2) FIGS. 3A-D and 4A-E show U87-MG and U87-MG^shp53 FACS analysis of DNA contents following treatment with TTFields and AZD1152. More specifically, FIGS. 3A-D depict increased polyploidy in U87-MG cells following the combined treatment of TTFields (200 kHz, 1.6 V/cm RMS) at various AZD1152 concentrations; and FIGS. 4A-E depict increased polyploidy in U87-MG^shp53 cells following the combined treatment of TTFields (200 kHz, 1.6 V/cm RMS) at various AZD1152 concentrations.
(§3) Tables 1 and 2 depict, for U87-MG and U87-MG^shp53 respectively, numeric data corresponding to FIGS. 3 and 4. The columns in tables 1 and 2 represent the DNA copy number (e.g., 2n is the normal number of chromosomes (23 pairs=46), 4n is twice the number of chromosomes, etc.).

U87-MG [1] = assay: Cytotoxicity assay (cell count at end of treatment), U87-MG; details: for cytotoxic effect, Observed TTFields + AZD1152 / cytotoxic effect, AZD1152: 72 h; for cytotoxic effect, Observed TTFields + AZD1152: percentage of control; for cytotoxic effect, Expected: expected value for the combination; for cytotoxic effect, AZD1152: number of cells as percentage of control
Description: (§4) The effects of the combined treatment of TTFields and the Aurora B kinase inhibitor AZD1152 was tested in 3 different glioma cell lines: U87-MG, U87-MG^shp53 and U-251. TTFields ([…], 200 kHz) were applied for 72 hours using the Inovitro system. AZD1152 was added to the media in concentrations of up to 100 nmol/L. Cell counts, cell cycle, and clonogenic potential were determined at the end of treatment. Formation of multinuclear cells was determined using microscopic images of cells stained with crystal violet.
(§5) The effects of the combined treatment of TTFields and AZD1152 was tested using the following human glioma cell lines: U87-MG (ATCC), U-251 (ECACC) and U87-mG^shp53 (provided by Dr. Achim Temme). All cells were grown in a humidified incubator supplied with 5% CO2. Cells were maintained in EMEM, supplemented with 10% FBS, 2 mmol/L glutamine, Pen-Strep solution (100 units/ml Penicillin and 0.1 mg/ml Streptomycin), 1 mmol/L sodium pyruvate and 1% NEAA. U87-MG^shp53 cells were maintained under selection with […] geneticin. AZD1152 was obtained from Sigma, Israel.
(§6) TTFields (1.6 V/cm RMS, 200 kHz) were applied for 72 hours using the Inovitro system. At the end of treatment, inhibition of tumor cell growth was analyzed quantitatively based on cell count. Clonogenic survival of U87-MG, U87-MG^shp53 and U-251 was tested by plating triplicates of 300 cells/dish in 6 wells dishes. After 2-3 weeks, cells were stained with crystal violet and the number of clones was quantified. Overall effect was calculated by multiplying the percentage of surviving cells at the end of treatment with the percentage of colonies formed vs. control.

U87-MG [2] = assay: Flow cytometry analysis of DNA contents (ploidy), U87-MG; details: 72 h
Description: as §1, §2, §3

U-251 = assay: Overall effect based on the clonogenic assay, U-251; details: for overall effect, Observed TTFields + AZD1152 / overall effect, AZD1152: 72 h; for overall effect, Observed TTFields + AZD1152: clonogenic assay; for overall effect, Expected: expected value for the combination; for overall effect, AZD1152: based on the clonogenic assay
Description: as §4, §5, §6
The overall effect for U-251 cells was determined based on the clonogenic assay. Response to TTFields application alone led to about 50% reduction in the clonogenic potential of U-251 cells (FIG. 1E).

U87-MG [3] = assay: Overall effect (surviving cells x colonies formed vs. control), U87-MG; details: for overall effect, Observed TTFields + AZD1152 / overall effect, AZD1152: 72 h; for overall effect, Expected: expected value for the combination; for overall effect, AZD1152: surviving cells x colonies vs. control
Description: as §4, §5, §6

[4] = U87-MGShp53, AZD1152 12.5 nM + TTFIELDS 200 kHz 1.6 V/cm RMS
[5] = U87-MGShp53, AZD1152 12.5 nM, CONTROL (no TTFields)
[6] = U87-MGShp53, AZD1152 25 nM + TTFIELDS 200 kHz 1.6 V/cm RMS
[7] = U87-MGShp53, AZD1152 25 nM, CONTROL (no TTFields)
[8] = U87-MGShp53, AZD1152 50 nM + TTFIELDS 200 kHz 1.6 V/cm RMS
[9] = U87-MGShp53, AZD1152 50 nM, CONTROL (no TTFields)
[10] = AZD1152 25 nM + TTFIELDS 200 kHz 1.6 V/cm RMS
[11] = AZD1152 25 nM, CONTROL (no TTFields)
[12] = AZD1152 50 nM + TTFIELDS 200 kHz 1.6 V/cm RMS
[13] = AZD1152 50 nM, CONTROL (no TTFields)
[14] = AZD1152 100 nM + TTFIELDS 200 kHz 1.6 V/cm RMS
[15] = AZD1152 100 nM, CONTROL (no TTFields)

CCN(CCCOc1ccc2c(Nc3cc(CC(=O)Nc4cccc(F)c4)n[nH]3)ncnc2c1)CCOP(=O)(O)O [AZD1152, Barasertib]
DNA copy number 2n (U87-MG^shp53; [4]): 44% | DNA copy number 4n (U87-MG^shp53; [4]): 34% | DNA copy number 8n (U87-MG^shp53; [4]): 19% | DNA copy number 2n (U87-MG^shp53; [5]): 46% | DNA copy number 4n (U87-MG^shp53; [5]): 29% | DNA copy number 8n (U87-MG^shp53; [5]): 6% | DNA copy number 16n (U87-MG^shp53; [5]): 1% | DNA copy number 32n (U87-MG^shp53; [5]): 0% | DNA copy number 2n (U87-MG^shp53; [6]): 10% | DNA copy number 4n (U87-MG^shp53; [6]): 36% | DNA copy number 8n (U87-MG^shp53; [6]): 29% | DNA copy number 2n (U87-MG^shp53; [7]): 48% | DNA copy number 4n (U87-MG^shp53; [7]): 25% | DNA copy number 8n (U87-MG^shp53; [7]): 6% | DNA copy number 16n (U87-MG^shp53; [7]): 1% | DNA copy number 32n (U87-MG^shp53; [7]): 0% | DNA copy number 2n (U87-MG^shp53; [8]): 2% | DNA copy number 4n (U87-MG^shp53; [8]): 21% | DNA copy number 8n (U87-MG^shp53; [8]): 38% | DNA copy number 2n (U87-MG^shp53; [9]): 40% | DNA copy number 4n (U87-MG^shp53; [9]): 33% | DNA copy number 8n (U87-MG^shp53; [9]): 11% | DNA copy number 16n (U87-MG^shp53; [9]): 3% | DNA copy number 32n (U87-MG^shp53; [9]): 0% | cytotoxic effect, Observed TTFields + AZD1152 (U87-MG [1]; AZD1152 25 nM + TTFields 200 kHz 1.6 V/cm RMS): 13.5% | cytotoxic effect, Expected (U87-MG [1]; AZD1152 25 nM + TTFields): 23.5% | cytotoxic effect, AZD1152 (U87-MG [1]; AZD1152 25 nM alone): 46% | cytotoxic effect, Observed TTFields + AZD1152 (U87-MG [1]; AZD1152 50 nM + TTFields 200 kHz 1.6 V/cm RMS): 8.5% | cytotoxic effect, Expected (U87-MG [1]; AZD1152 50 nM + TTFields): 13.0% | cytotoxic effect, AZD1152 (U87-MG [1]; AZD1152 50 nM alone): 25.5% | cytotoxic effect, Observed TTFields + AZD1152 (U87-MG [1]; AZD1152 100 nM + TTFields 200 kHz 1.6 V/cm RMS): 4.0% | cytotoxic effect, Expected (U87-MG [1]; AZD1152 100 nM + TTFields): 4.8% | cytotoxic effect, AZD1152 (U87-MG [1]; AZD1152 100 nM alone): 9.5% | cytotoxic effect of combined treatment of TTFields and AZD1152 (U87-MG [1]; TTFields 200 kHz 1.6 V/cm RMS 72 hours, 2-way ANOVA, p<0.001): significant enhancement of the cytotoxic effect | DNA copy number 2n (U87-MG [2]; [10]): 39% | DNA copy number 4n (U87-MG [2]; [10]): 31% | DNA copy number 8n (U87-MG [2]; [10]): 9% | DNA copy number 16n (U87-MG [2]; [10]): 2% | DNA copy number 2n (U87-MG [2]; [11]): 55% | DNA copy number 4n (U87-MG [2]; [11]): 25% | DNA copy number 8n (U87-MG [2]; [11]): 4% | DNA copy number 16n (U87-MG [2]; [11]): 1% | DNA copy number 2n (U87-MG [2]; [12]): 28% | DNA copy number 4n (U87-MG [2]; [12]): 36% | DNA copy number 8n (U87-MG [2]; [12]): 16% | DNA copy number 16n (U87-MG [2]; [12]): 2% | DNA copy number 2n (U87-MG [2]; [13]): 45% | DNA copy number 4n (U87-MG [2]; [13]): 26% | DNA copy number 8n (U87-MG [2]; [13]): 8% | DNA copy number 16n (U87-MG [2]; [13]): 2% | DNA copy number 2n (U87-MG [2]; [14]): 11% | DNA copy number 4n (U87-MG [2]; [14]): 40% | DNA copy number 8n (U87-MG [2]; [14]): 25% | DNA copy number 16n (U87-MG [2]; [14]): 4% | DNA copy number 2n (U87-MG [2]; [15]): 27% | DNA copy number 4n (U87-MG [2]; [15]): 33% | DNA copy number 8n (U87-MG [2]; [15]): 22% | DNA copy number 16n (U87-MG [2]; [15]): 3% | overall effect, Observed TTFields + AZD1152 (U-251; U-251, AZD1152 6.25 nM + TTFields 200 kHz 1.6 V/cm RMS): 8.0% | overall effect, Expected (U-251; U-251, AZD1152 6.25 nM + TTFields): 40.7% | overall effect, AZD1152 (U-251; U-251, AZD1152 6.25 nM alone): 74% | overall effect, Observed TTFields + AZD1152 (U-251; U-251, AZD1152 12.5 nM + TTFields 200 kHz 1.6 V/cm RMS): 0.7% | overall effect, Expected (U-251; U-251, AZD1152 12.5 nM + TTFields): 8.3% | overall effect, AZD1152 (U-251; U-251, AZD1152 12.5 nM alone): 15% | overall effect, Observed TTFields + AZD1152 (U-251; U-251, AZD1152 25 nM + TTFields 200 kHz 1.6 V/cm RMS): 0.2% | overall effect, Expected (U-251; U-251, AZD1152 25 nM + TTFields): 1.1% | overall effect, AZD1152 (U-251; U-251, AZD1152 25 nM alone): 2% | overall effect, Observed TTFields + AZD1152 (U-251; U-251, AZD1152 50 nM + TTFields 200 kHz 1.6 V/cm RMS): 0.2% | overall effect, Expected (U-251; U-251, AZD1152 50 nM + TTFields): 1.1% | overall effect, AZD1152 (U-251; U-251, AZD1152 50 nM alone): 2% | overall effect, Observed TTFields + AZD1152 (U-251; U-251, AZD1152 100 nM + TTFields 200 kHz 1.6 V/cm RMS): 0.2% | overall effect, Expected (U-251; U-251, AZD1152 100 nM + TTFields): 0.8% | overall effect, AZD1152 (U-251; U-251, AZD1152 100 nM alone): 1.5% | overall effect, Observed TTFields + AZD1152 (U87-MG [3]; [10]): 10.0% | overall effect, Expected (U87-MG [3]; AZD1152 25 nM + TTFields): 15.0% | overall effect, AZD1152 (U87-MG [3]; AZD1152 25 nM alone): 31% | overall effect, Observed TTFields + AZD1152 (U87-MG [3]; [12]): 6.0% | overall effect, Expected (U87-MG [3]; AZD1152 50 nM + TTFields): 8.0% | overall effect, AZD1152 (U87-MG [3]; AZD1152 50 nM alone): 16.5% | overall effect, Observed TTFields + AZD1152 (U87-MG [3]; [14]): 4.0% | overall effect, Expected (U87-MG [3]; AZD1152 100 nM + TTFields): 2.2% | overall effect, AZD1152 (U87-MG [3]; AZD1152 100 nM alone): 4.5%
